In patent publication US4708871A, “Antigenically active amino acid sequences” (priority 1983, dated 1987):
“Also recorded” adds a separate entry of the source. No end group written: not given here.

Legend:
Format in all cases: binding, rabbit
[1] = tested on: anti-VP1, type O1 antiserum
[2] = tested on: anti-intact virus particle, type O1 antisera
[3] = tested on: anti-virus-subunit, type O1 antiserum
[4] = tested on: anti-intact virus particle, type C1 antiserum

Substance | Activity with another anti-VP1 serum (ELISA) [1] | Reactive antibody in anti-VP1 sera (ELISA) [1] | Change of activity, absorbed compared to non-absorbed serum [2] | Reactive antibody in anti-intact virus serum after absorption with purified virus (ELISA) [2] | Reactive antibody in whole anti-intact virus sera (ELISA) [2] | Reactive antibody in anti-subunit sera (ELISA) [3] | Reaction with antiserum to type C1 (ELISA) [4]
GDLQVL [GDLQVL] | showed nothing | only weakly present | loss of activity | absent | present; also recorded: reacted | not observed | did not react at all
DLQVLA [compound 147] | showed nothing | only weakly present | loss of activity | absent | present; also recorded: reacted | not observed | did not react at all
